Reference: US7256178B2, “Physiologically active substances” (priority 2002, dated 2007)

Legend:
VEGF promoter = experiment: VEGF transcription inhibitory activity (VEGF-PLAP reporter, U251/1-8 cells under hypoxic conditions); type: cell-based; settings: Homo sapiens, U-251, hypoxic (2% O2) incubator 18 hours, n=2 to 3
Description: In order to prepare a reporter system in which transcription from a VEGF promoter is reflected, a VEGF promoter sequence was cloned and inserted into a placental alkaline phosphatase (PLAP) vector to construct a reporter vector.
In order to obtain a promoter region of human VEGF, a VEGF genome was cloned from a phage library. Based on VEGF cDNA (GenBank accession number: X62568), a PCR primer in the sequence described as SEQ ID NO: 1 or SEQ ID NO: 2 was designed to conduct PCR, thereby obtaining about a fragment of 340 bp. A human genomic phage library (human genomic library, Clontech) was screened using this fragment as a probe to obtain pUC18-VEGFA containing a VEGF5′ franking region of about 5.4 kb. This pUC18-VEGFA was cut with Kpn I/Nhe I to obtain a VEGF promoter region of about 2.3 kb, and the region was inserted into the multicloning site Kpn I/Nhe I of the placental alkaline phosphatase (PLAP) reporter vector (Goto et al., Mol. Pharmacol., 49, 860-873, 1996) to construct a VEGF-PLAP vector.
The above-described VEGF-PLAP vector was introduced into U251 cells cultured in a Dulbecco's modified Eagle's medium containing 10% fetal bovine serum (DMEM, manufactured by Sigma Co.), and cultured in the presence of 1 mg/mL G418 (Merck & Co., Inc.) to establish a G418-resistant stable clone (U251/1-8 cells).
As in a report by Minchenko et al. (Cell. Mol. Biol. Res., 40, 35-39, 1994), U251/1-8 cells were confirmed to be a reporter system which secretes PLAP into a culture medium under hypoxic conditions (2% O2 incubator), and in which transcription from a VEGF promoter is reflected. A compound inhibiting VEGF production induced by hypoxic stimulation was screened using this clone.
In order to eliminate influence of the alkali phosphatase in the serum, the U251/1-8 cells were washed with a sufficient amount of PBS (Phosphate buffered saline) twice, and treated at 65° C. for 20 minutes to inactivate the alkaline phosphatase in the serum. 4×10^4 cells/180 μL per well of the cells diluted in the DMEM culture medium containing 10% of this serum were plated in a 96-well plate.
The cells were cultured in a CO2 incubator (5% CO2) at 37° C. overnight, and 20 μL of the above-described culture solution containing the test compound at threefold serial dilutions was added. Subsequently, the cells were cultured in hypoxic (2% O2) incubator for 18 hours. To measure the PLAP activity in the culture supernatant liquid, 10 μL of the culture supernatant liquid was added to 50 μL of a 0.28 M Na2CO3—NaHCO3 buffer solution (pH 10.0, 8.0 mM MgSO4), and finally 50 μL of an alkaline phosphatase substrate (Lumistain, Genome Science Laboratories Co., Ltd.) was added thereto. After the reaction for one hour, chemiluminescence was detected using a microplate reader (PerkinElmer) to measure the PLAP activity as the alkaline phosphatase activity. The PLAP activity under normoxic conditions was defined as 0%, the PLAP activity of the cells when treated under hypoxic conditions was defined as 100%, and the concentration for inhibiting 50% of the PLAP activity was defined as the IC50 value of PLAP. The IC50 values of the 6-deoxy 11107D derivatives shown in examples were determined (n=2 to 3).

[1] = tested on: WiDr human colon cancer cells; experiment: Action of inhibiting proliferation of WiDr human colon cancer cells (MTT); type: cell-based; settings: 72 h, three days, n=2 to 3, read-out: WiDr human colon cancer cell proliferation inhibitory activity (IC50: nM)
Experimental: 2×10^3 cells/well of WiDr human colon cancer cells cultured in a Dulbecco's modified Eagle's medium containing 10% fetal bovine serum, penicillin (100 units/mL) and streptomycin (100 μg/mL) (DMEM, manufactured by Sigma Co.) were plated in a 96-well plate. The cells were cultured in a CO2 incubator overnight, and 20 μL of the above-described culture solution containing the test compound at threefold serial dilutions was added for culturing the cells. After three days, 50 μL of a 3.3 mg/mL MTT solution was added, and the cells were further cultured for one hour. Then, formazan generated by reduction using living cells was extracted with 100 μL of DMSO to measure the absorbance (A540/A660), which was used as an index of the number of living cells.
The concentration for inhibiting 50% of proliferation of WiDr human colon cancer cells (IC50 value) of the compound of the formula (I) was determined (n=2 to 3).

[2] = Stability in an aqueous solution (HPLC); type: physicochemical; settings: pH 7 Britton-Robinson buffer solution, 25° C., 24 hours
Experimental: The compound of the formula (I) was dissolved in DMSO at a concentration of 10 to 20 mM, and the solution was diluted with a pH 7 Britton-Robinson buffer solution to about 500-fold. This solution was used as a sample solution, and was incubated at 25° C. for 24 hours.
The sample solution before and after the incubation was analyzed using high-performance liquid chromatography to obtain a chromatogram. The percentage of the compound remaining in the sample solution after the incubation was determined from the peak area of the chromatogram.

[3] = Physicochemical properties: solubility
WiDr human colon tumors = experiment: Solid cancer growth inhibitory action, WiDr cells subcutaneously implanted in nude mice; type: in vivo, nude mouse; settings: 15th day, control group as 100%
Experimental: (§1) In order to examine the solid cancer growth inhibitory activity of the compound of the formula (I) in vivo, WiDr human colon cancer cells were subcutaneously implanted into the body of each nude mouse. […] The control group consisted of ten mice, and the 6-deoxy 11107D derivative-administration group consisted of five mice. The derivative was intravenously injected at 0.625 mg/kg/day, 1.25 mg/kg/day, 2.5 mg/kg/day, 5 mg/kg/day, or 10 mg/kg/day to each mouse of the administration group, and a vehicle was administered to each mouse of the control group.
(§2) The tumor volumes on the 15th day were measured to determine the relative tumor weight ratio (T/C %), based on the tumor weight of each mouse of the control group as 100%. The body weights on the day of the start of administration, 5th day, 8th day, 12th day and 15th (or 16th) day were measured to examine the relative body weight variations in the case of administering the representative compounds, based on the body weights on the day of the start of administration as 100%. The minimum relative body weight ratios, which are the relative body weight ratios on the day when the body weights were lightest, are shown in Table 3.

[4] = Body weight reduction (acute toxicity) in the WiDr nude mouse test; type: in vivo; settings: nude mice, day when body weights were lightest, relative to day of start of administration
Experimental: as §1, §2

| Compound | IC50 (VEGF promoter) [nM] | IC50 [1] [nM] | Remaining percentage (%) [2] [%] | other results |
| --- | --- | --- | --- | --- |
| CCC(O)C(C)C1OC1CC(C)(O)/C=C/C=C(\C)C1OC(=O)CC(O)CCC(C)C(OC(=O)NCCN(CC)CC)/C=C/C1C (stereo not shown) [Compound 22, (8E,12E,14E)-7-(N-(2-(N′,N′-diethylamino)ethyl)carbamoyloxy)-3,16,21-trihydroxy-6,10,12,16,20-pentamethyl-18,19-epoxytricosa-8,12,14-trien-11-olide] | 2.5 | 1.1 | 95.4 |  |
| CCC(O)C(C)C1OC1CC(C)/C=C/C=C(\C)C1OC(=O)CC(O)CCC(C)C(OC(C)=O)/C=C/C1C (stereo not shown) [6-deoxy 11107B] |  |  |  | Solubility in organic solvents ([3]; dimethyl sulfoxide, pyridine, methanol, acetone): soluble in dimethyl sulfoxide, pyridine, methanol, and acetone; Solubility in water ([3]; water): poorly soluble in water |
| CCC(O)C(C)C1OC1CC(C)(O)/C=C/C=C(\C)C1OC(=O)CC(O)CCC(C)C(OC(=O)N2CCN(C)CC2)/C=C/C1C (stereo not shown) [Compound 18, (8E,12E,14E)-3,16,21-trihydroxy-6,10,12,16,20-pentamethyl-7-((4-methylpiperazin-1-yl)carbonyl)oxy-18,19-epoxytricosa-8,12,14-trien-11-olide] | 1 | 0.5 | 95.0 |  |
| CCC(O)C(C)C1OC1CC(C)(O)/C=C/C=C(\C)C1OC(=O)CC(O)CCC(C)C(OC(=O)N2CCN(C(C)C)CC2)/C=C/C1C (stereo not shown) [Compound 44, (8E,12E,14E)-3,16,21-trihydroxy-7-((4-isopropylpiperazin-1-yl)carbonyl)oxy-6,10,12,16,20-pentamethyl-18,19-epoxytricosa-8,12,14.-trien-11-olide] | 2.4 | 0.6 | 95.4 |  |
| CCC(O)C(C)C1OC1CC(C)(O)/C=C/C=C(\C)C1OC(=O)CC(O)CCC(C)C(OC(=O)N(C)C2CCN(C)CC2)/C=C/C1C (stereo not shown) [Compound 29, (8E,12E,14E)-3,16,21-trihydroxy-6,10,12,16,20-pentamethyl-7-(N-methyl-N-(1-methylpiperidin-4-yl)carbamoyloxy)-18,19-epoxytricosa-8,12,14-trien-11-olide] | 1.3 | 0.3 |  |  |
| CCC(O)C(C)C1OC1CC(C)(O)/C=C/C=C(\C)C1OC(=O)CC(O)CCC(C)C(OC(=O)N2CCCN(CC)CC2)/C=C/C1C (stereo not shown) [Compound 43, (8E,12E,14E)-7-((4-ethylhomopiperazin-1-yl)carbonyl)oxy-3,16,21-trihydroxy-6,10,12,16,20-pentamethyl-18,19-epoxytricosa-8,12,14-trien-11-olide] | 2.3 | 0.5 | 95.8 | WiDr human colon tumor growth inhibitory activity T/C(%) (WiDr human colon tumors; 1.25 mg/kg/day intravenously): 9%; Minimum relative body weight ratio ([4]; 1.25 mg/kg/day intravenously): 0.83 |
| CCC(O)C(C)C1OC1CC(C)(O)/C=C/C=C(\C)C1OC(=O)CC(O)CCC(C)C(OC(=O)N2CCCN(C)CC2)/C=C/C1C (stereo not shown) [Compound 19, (8E,12E,14E)-3,16,21-trihydroxy-6,10,12,16,20-pentamethyl-7-((4-methylhomopiperazin-1-yl)carbonyl)oxy-18,19-epoxytricosa-8,12,14-trien-11-olide] | 1.1 | 0.3 | 95.5 |  |
| CCC(O)C(C)C1OC1CC(C)(O)/C=C/C=C(\C)C1OC(=O)CC(O)CCC(C)C(OC(=O)N2CCN(CC(C)(C)C)CC2)/C=C/C1C (stereo not shown) [Compound 23, (8E,12E,14E)-7-((4-(2,2-dimethylpropyl)piperazin-1-yl)carbonyl)oxy-3,16,21-trihydroxy-6,10,12,16,20-pentamethyl-18,19-epoxytricosa-8,12,14-trien-11-olide] | 14.7 | 3.8 |  |  |
| CCC(O)C(C)C1OC1CC(C)(O)/C=C/C=C(\C)C1OC(=O)CC(O)CCC(C)C(OC(=O)N2CCC(N3CCCCC3)CC2)/C=C/C1C (stereo not shown) [Compound 21, (8E,12E,14E)-3,16,21-trihydroxy-6,10,12,16,20-pentamethyl-7-((4-(piperidin-1-yl)piperidin-1-yl)carbonyl)oxy-18,19-epoxytricosa-8,12,14-trien-11-olide] | 2 | 0.6 | 94.8 |  |
| CCC(O)C(C)C1OC1CC(C)(O)/C=C/C=C(\C)C1OC(=O)CC(O)CCC(C)C(OC(=O)N2C[C@@H]3C[C@H]2CN3C)/C=C/C1C (stereo partly drawn) [Compound 55, (8E,12E,14E)-3,16,21-trihydroxy-6,10,12,16,20-pentamethyl-7-(((1S,4S)-5-methyl-2,5-diazabicyclo[2.2.1]heptan-2-yl)carbonyl)oxy-18,19-epoxytricosa-8,12,14-trien-11-olide] | 1.1 | 0.6 | 95.7 | WiDr human colon tumor growth inhibitory activity T/C(%) (WiDr human colon tumors; 0.625 mg/kg/day intravenously): 11%; Minimum relative body weight ratio ([4]; 0.625 mg/kg/day intravenously): 0.80 |
| CCC(O)C(C)C1OC1CC(C)(O)/C=C/C=C(\C)C1OC(=O)CC(O)CCC(C)C(OC(=O)N(C)CCN(CC)CC)/C=C/C1C (stereo not shown) [Compound 20, (8E,12E,14E)-7-(N-(2-(N′,N′-diethylamino)ethyl-N-methyl)carbamoyloxy)-3,16,21-trihydroxy-6,10,12,16,20-pentamethyl-18,19-epoxytricosa-8,12,14-trien-11-olide] | 1.1 | 0.2 | 95.6 |  |
| CCC(O)C(C)C1OC1CC(C)(O)/C=C/C=C(\C)C1OC(=O)CC(O)CCC(C)C(OC(=O)N2CCCN(C(C)C)CC2)/C=C/C1C (stereo not shown) [Compound 39, (8E,12E,14E)-3,16,21-trihydroxy-7-((4-isopropylhomopiperazin-1-yl)carbonyl)oxy-6,10,12,16,20-pentamethyl-18,19-epoxytricosa-8,12,14-trien-11-olide] | 1.3 | 0.5 | 95.9 |  |
